Laboratory results taken from US9555022B2, “Substituted triazolopyridines” (Bayer Intellectual Property GmbH, priority 2010, dated 2017).
Structures can show the parent of a compound that is named as a salt.

Target: human full length recombinant Mps-1 kinase (Homo sapiens (Human), UniProt P33981)
Experiment: Mps-1 Kinase Assay (TR-FRET)
Assay type: biochemical
Details: 10 μM ATP, 1 μM biotinylated peptide substrate, 60 min at 22° C., read-out: Mps-1 Inhibition, IC50 in M
Protocol: The human kinase Mps-1 phosphorylates a biotinylated substrate peptide. Detection of the phosphorylated product is achieved by time-resolved fluorescence resonance energy transfer (TR-FRET) from Europium-labelled anti-phospho-Serine/Threonine antibody as donor to streptavidin labelled with cross-linked allophycocyanin (SA-XLent) as acceptor. Compounds are tested for their inhibition of the kinase activity.
N-terminally GST-tagged human full length recombinant Mps-1 kinase (purchased from Invitrogen, Karslruhe, Germany, cat. no PV4071) was used. As substrate for the kinase reaction a biotinylated peptide of the amino-acid sequence […] (C-terminus in amide form, purchased from Biosynthan GmbH, Berlin) was used.
The concentration of Mps-1 in the assay was adjusted to the activity of the enzyme lot and was chosen appropriate to have the assay in the linear range, typical enzyme concentrations were in the range of about 1 nM (final conc. in the 5 μl assay volume).
The resulting mixture was incubated 1 h at 22° C. to allow the binding of the phosphorylated peptide to the anti-phospho(Ser/Thr)-Europium-antibody. Subsequently the amount of phosphorylated substrate was evaluated by measurement of the resonance energy transfer from the Europium-labelled anti-phospho(Ser/Thr) antibody to the Streptavidin-XLent.

Chain of human full length recombinant Mps-1 kinase (P33981 whole entry): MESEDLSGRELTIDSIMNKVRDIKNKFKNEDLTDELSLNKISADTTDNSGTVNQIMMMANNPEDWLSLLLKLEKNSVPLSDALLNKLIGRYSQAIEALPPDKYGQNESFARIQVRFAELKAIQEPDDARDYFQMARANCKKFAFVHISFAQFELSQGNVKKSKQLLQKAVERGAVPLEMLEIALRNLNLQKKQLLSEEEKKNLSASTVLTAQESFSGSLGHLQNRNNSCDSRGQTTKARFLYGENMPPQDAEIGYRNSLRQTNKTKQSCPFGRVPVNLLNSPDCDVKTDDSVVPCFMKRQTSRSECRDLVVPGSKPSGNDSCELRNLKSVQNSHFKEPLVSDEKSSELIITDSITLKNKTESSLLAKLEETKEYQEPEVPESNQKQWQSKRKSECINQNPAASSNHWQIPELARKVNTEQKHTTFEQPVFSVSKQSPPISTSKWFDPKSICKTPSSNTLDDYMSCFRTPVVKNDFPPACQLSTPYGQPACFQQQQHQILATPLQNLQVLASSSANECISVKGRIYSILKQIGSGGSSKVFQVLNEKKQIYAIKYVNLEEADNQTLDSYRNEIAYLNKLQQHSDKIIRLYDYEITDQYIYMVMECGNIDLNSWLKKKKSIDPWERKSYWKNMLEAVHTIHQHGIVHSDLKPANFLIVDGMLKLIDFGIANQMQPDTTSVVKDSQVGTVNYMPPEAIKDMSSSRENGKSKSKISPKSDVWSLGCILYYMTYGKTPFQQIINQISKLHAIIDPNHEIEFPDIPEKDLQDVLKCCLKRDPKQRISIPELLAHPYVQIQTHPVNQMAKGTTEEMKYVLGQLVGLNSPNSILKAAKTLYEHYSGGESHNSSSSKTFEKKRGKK

Compared with `COc1cc(C(=O)N2CCOCC2)ccc1Nc1nc2ccc(-c3ccc(NC(=O)CC4CC4)cc3)cn2n1` [Example 01.01, 2-cyclopropyl-N-[4-(2-{[2-methoxy-4-(morpholin-4-ylcarbonyl)phenyl]amino}[,2]-triazolo[1,5-a]pyridin-6-yl)phenyl]acetamide], `CCOc1cc(C(=O)N2CCOCC2)ccc1Nc1nc2ccc(-c3ccc(NC(=O)CC4CC4)cc3)cn2n1` [Example 01.02, 2-cyclopropyl-N-[4-(2-{[2-ethoxy-4-(morpholin-4-ylcarbonyl)phenyl]amino}[,2]-triazolo[1,5-a]pyridin-6-yl)phenyl]acetamide] is lower in IC50: 5.56 nM for the first, no more than 1 nM for the second.

Going from `COc1cc(N2CCN(C)CC2)ccc1Nc1nc2ccc(-c3ccc(NC(=O)CC4CC4)cc3)cn2n1` [Example 01.03, 2-cyclopropyl-N-[4-(2-{[2-methoxy-4-(4-methylpiperazin-1-yl)phenyl]amino}[,2]-triazolo[1,5-a]pyridin-6-yl)phenyl]acetamide trifluoroacetate] to `COc1cc(N2CCN(C)CC2)ccc1Nc1nc2ccc(-c3ccc(NC(=O)Cc4ccc(F)cc4)cc3)cn2n1` [Example 02.08, 2-(4-fluorophenyl)-N-[4-(2-{[2-methoxy-4-(4-methylpiperazin-1-yl)phenyl]amino}[,2]-triazolo[1,5-a]pyridin-6-yl)phenyl]acetamide trifluoroacetate], the IC50 falls from 6.02 nM to 1.05 nM (5.7-fold). The second is the more potent here.

`CCOc1cc(C(=O)N2CCOCC2)ccc1Nc1nc2ccc(-c3ccc(NC(=O)Cc4ccc(F)cc4)cc3)cn2n1` [Example 02.02, N-[4-(2-{[2-ethoxy-4-(morpholin-4-ylcarbonyl)phenyl]amino}[,2]-triazolo[1,5-a]pyridin-6-yl)phenyl]-2-(4-fluorophenyl)acetamide] and `CCOc1cc(C(=O)N2CCNCC2)ccc1Nc1nc2ccc(-c3ccc(NC(=O)Cc4ccc(F)cc4)cc3)cn2n1` [Example 02.06, N-[4-(2-{[2-ethoxy-4-(piperazin-1-ylcarbonyl)phenyl]amino}[,2]-triazolo[1,5-a]pyridin-6-yl)phenyl]-2-(4-fluorophenyl)acetamide] cannot be ordered by IC50: no more than 1 nM for the first, no more than 1 nM for the second.

Compared with `COc1cc(C2=NC(C)(C)CO2)ccc1Nc1nc2ccc(-c3ccc(NC(=O)Cc4ccc(F)cc4)cc3)cn2n1` [Example 02.03, N-[4-(2-{[4-(4,4-dimethyl-4,5-dihydro-1,3-oxazol-2-yl)-2-methoxyphenyl]amino}[,2]-triazolo[1,5-a]pyridin-6-yl)phenyl]-2-(4-fluorophenyl)acetamide], `COc1cc(C2=NCCO2)ccc1Nc1nc2ccc(-c3ccc(NC(=O)Cc4ccc(F)cc4)cc3)cn2n1` [Example 02.14, N-[4-(2-{[4-(4,5-dihydro-1,3-oxazol-2-yl)-2-methoxyphenyl]amino}[,2]-triazolo[1,5-a]pyridin-6-yl)phenyl]-2-(4-fluorophenyl)acetamide] is lower in IC50: 1.04 nM for the first, no more than 1 nM for the second.

`COc1cc(C(=O)N2CCN(C)CC2)ccc1Nc1nc2ccc(-c3ccc(NC(=O)Cc4ccc(F)cc4)cc3)cn2n1` [Example 02.04, 2-(4-fluorophenyl)-N-{4-[2-({2-methoxy-4-[(4-methylpiperazin-1-yl)carbonyl]phenyl}amino)[,2]triazolo[1,5-a]pyridin-6-yl]phenyl}acetamide] and `COc1cc(C(=O)N2CCC2)ccc1Nc1nc2ccc(-c3ccc(NC(=O)Cc4ccc(F)cc4)cc3)cn2n1` [Example 02.22, N-[4-(2-{[4-(azetidin-1-ylcarbonyl)-2-methoxyphenyl]amino}[,2]-triazolo[1,5-a]pyridin-6-yl)phenyl]-2-(4-fluorophenyl)acetamide] cannot be ordered by IC50: no more than 1 nM for the first, no more than 1 nM for the second.

`CCOc1cc(C(=O)N2CCN(C(=O)OC(C)(C)C)CC2)ccc1Nc1nc2ccc(-c3ccc(NC(=O)Cc4ccc(F)cc4)cc3)cn2n1` [Example 02.05, tert-butyl 4-(3-ethoxy-4-{[6-(4-{[(4-fluorophenyl)acetyl]amino}phenyl)[,2]triazolo[1,5-a]pyridin-2-yl]amino}benzoyl)piperazine-1-carboxylate] and `CCOc1cc(C(=O)N2CCN(CC3CC3)CC2)ccc1Nc1nc2ccc(-c3ccc(NC(=O)Cc4ccc(F)cc4)cc3)cn2n1` [Example 02.07, N-(4-{2-[(4-{[4-(cyclopropylmethyl)piperazin-1-yl]carbonyl}-2-ethoxyphenyl)amino][,2]triazolo[1,5-a]pyridin-6-yl}phenyl)-2-(4-fluorophenyl)acetamide] cannot be ordered by IC50: no more than 1 nM for the first, no more than 1 nM for the second.

`O=C(Cc1ccc(F)cc1)Nc1ccc(-c2ccc3nc(Nc4ccc(C(=O)N5CCOCC5)cc4OC(F)(F)F)nn3c2)cc1` [Example 02.10, 2-(4-fluorophenyl)-N-[4-(2-{[4-(morpholin-4-ylcarbonyl)-2-(trifluoromethoxy)phenyl]amino}[,2]-triazolo[1,5-a]pyridin-6-yl)phenyl]acetamide] and `O=C(Cc1ccc(F)cc1)Nc1ccc(-c2ccc3nc(Nc4ccc(C(=O)N5CC6(COC6)C5)cc4OCC(F)(F)F)nn3c2)cc1` [Example 02.26, 2-(4-fluorophenyl)-N-[4-(2-{[4-(2-oxa-6-azaspiro[3.3]hept-6-ylcarbonyl)-2-(2,2,2-trifluoroethoxy)phenyl]amino}[,2]triazolo[1,5-a]pyridin-6-yl)phenyl]acetamide] cannot be ordered by IC50: no more than 1 nM for the first, no more than 1 nM for the second.

`CCOc1cc(N2CCOC2=O)ccc1Nc1nc2ccc(-c3ccc(NC(=O)Cc4ccc(F)cc4)cc3)cn2n1` [Example 02.12, N-[4-(2-{[2-ethoxy-4-(2-oxo-1,3-oxazolidin-3-yl)phenyl]amino}[,2]-triazolo[1,5-a]pyridin-6-yl)phenyl]-2-(4-fluorophenyl)acetamide] and `Cc1cc(N2CCOC2=O)ncc1Nc1nc2ccc(-c3ccc(NC(=O)Cc4ccc(F)cc4)cc3)cn2n1` [Example 02.13, 2-(4-fluorophenyl)-N-[4-(2-{[4-methyl-6-(2-oxo-1,3-oxazolidin-3-yl)pyridin-3-yl]amino}[,2]-triazolo[1,5-a]pyridin-6-yl)phenyl]acetamide] cannot be ordered by IC50: no more than 1 nM for the first, no more than 1 nM for the second.

`Cc1cc(C2=NCCO2)ccc1Nc1nc2ccc(-c3ccc(NC(=O)Cc4ccc(F)cc4)cc3)cn2n1` [Example 02.15, N-[4-(2-{[4-(4,5-dihydro-1,3-oxazol-2-yl)-2-methylphenyl]amino}[,2]triazolo[1,5-a]pyridin-6-yl)phenyl]-2-(4-fluorophenyl)acetamide] and `COc1cc(C(=O)NC2COC2)ccc1Nc1nc2ccc(-c3ccc(NC(=O)Cc4ccc(F)cc4)cc3)cn2n1` [Example 02.21, 4-{[6-(4-{[(4-fluorophenyl)acetyl]amino}phenyl)[,2]triazolo[1,5-a]pyridin-2-yl]amino}-3-methoxy-N-(oxetan-3-yl)benzamide] cannot be ordered by IC50: no more than 1 nM for the first, no more than 1 nM for the second.

`COc1cc(C(=O)N2CCS(=O)(=O)CC2)ccc1Nc1nc2ccc(-c3ccc(NC(=O)Cc4ccc(F)cc4)cc3)cn2n1` [Example 02.18, N-{4-[2-({4-[(1,1-dioxidothiomorpholin-4-yl)carbonyl]-2-methoxyphenyl}amino)[,2]triazolo[1,5-a]pyridin-6-yl]phenyl}-2-(4-fluorophenyl)acetamide] and `COc1cc(C(=O)N2CCC(O)CC2)ccc1Nc1nc2ccc(-c3ccc(NC(=O)Cc4ccc(F)cc4)cc3)cn2n1` [Example 02.20, 2-(4-fluorophenyl)-N-{4-[2-({4-[(4-hydroxypiperidin-1-yl)carbonyl]-2-methoxyphenyl}amino)[,2]triazolo[1,5-a]pyridin-6-yl]phenyl}acetamide] cannot be ordered by IC50: no more than 1 nM for the first, no more than 1 nM for the second.

`COc1cc(C(=O)N2CC(O)C2)ccc1Nc1nc2ccc(-c3ccc(NC(=O)Cc4ccc(F)cc4)cc3)cn2n1` [Example 02.19, 2-(4-fluorophenyl)-N-{4-[2-({4-[(3-hydroxyazetidin-1-yl)carbonyl]-2-methoxyphenyl}amino)[,2]triazolo[1,5-a]pyridin-6-yl]phenyl}acetamide] and `CCOc1cc(C(=O)N2CC(O)C2)ccc1Nc1nc2ccc(-c3ccc(NC(=O)Cc4ccc(F)cc4)cc3)cn2n1` [Example 02.24, N-{4-[2-({2-ethoxy-4-[(3-hydroxyazetidin-1-yl)carbonyl]phenyl}amino)[,2]triazolo[1,5-a]pyridin-6-yl]phenyl}-2-(4-fluorophenyl)acetamide] cannot be ordered by IC50: no more than 1 nM for the first, no more than 1 nM for the second.

`CCOc1cc(C(=O)N2CC3(COC3)C2)ccc1Nc1nc2ccc(-c3ccc(NC(=O)Cc4ccc(F)cc4)cc3)cn2n1` [Example 02.23, N-[4-(2-{[2-ethoxy-4-(2-oxa-6-azaspiro[3.3]hept-6-ylcarbonyl)phenyl]amino}[,2]triazolo[1,5-a]pyridin-6-yl)phenyl]-2-(4-fluorophenyl)acetamide] and `CCOc1cc(C(=O)NC2CCN(C)CC2)ccc1Nc1nc2ccc(-c3ccc(NC(=O)Cc4ccc(F)cc4)cc3)cn2n1` [Example 02.25, 3-ethoxy-4-{[6-(4-{[(4-fluorophenyl)acetyl]amino}phenyl)[,2]-triazolo[1,5-a]pyridin-2-yl]amino}-N-(1-methylpiperidin-4-yl)benzamide] cannot be ordered by IC50: no more than 1 nM for the first, no more than 1 nM for the second.

`O=C(Cc1ccc(F)cc1)Nc1ccc(-c2ccc3nc(Nc4ccc(C(=O)N5CC(O)C5)cc4OCC(F)(F)F)nn3c2)cc1` [Example 02.27, 2-(4-fluorophenyl)-N-{4-[2-({4-[(3-hydroxyazetidin-1-yl)carbonyl]-2-(2,2,2-trifluoroethoxy)phenyl}amino)[,2]triazolo[1,5-a]pyridin-6-yl]phenyl}acetamide] and `COc1cc(N2CCN(C)CC2)ccc1Nc1nc2ccc(-c3ccc(NC(=O)Cc4ccc(F)cc4)cc3)cn2n1` [Example 02.28, 2-(4-fluorophenyl)-N-[4-(2-{[2-methoxy-4-(4-methylpiperazin-1-yl)phenyl]amino}[,2]-triazolo[1,5-a]pyridin-6-yl)phenyl]acetamide] cannot be ordered by IC50: no more than 1 nM for the first, no more than 1 nM for the second.
